According to ChEMBL document CHEMBL1201862, “PubChem BioAssay data set” (2004):
Values belong to the compound of their own block, whether it stands above or below them. Activity calls are given as the source filed them.

What was measured:
[1] = biological target: Ras and Rab interactor 1/Tyrosine-protein kinase ABL1 (Homo sapiens, UniProt P00519+Q13671); assay type: functional;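 also: biochemical TR-FRET dose-response test measuring inhibition of binding between Rin1 and Abl proteins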
[2] = biological target: T1, Polyadenylate-binding protein 1 (Homo sapiens, UniProt P11940); assay: PABP1 MLLE–PAM2 binding inhibitor potency, dose response, biochemical, fluorescence polarization, FITC-PAM2 peptide (AID 602259); assay type: functional; details: read-out: IC50_Mean
[3] = Counterscreen for activators of the function of SWI/SNF related, matrix associated, actin dependent regulator of chromatin, subfamily a, member 2 (SMARCA2, BRM): Luminescence-based cell-based high throughput dose response assay to identify non-selective compounds using the VP16 reporter assay.; assay type: functional
[4] = biological target: T2, RNA-binding protein pos-1 (Caenorhabditis elegans, UniProt G5EF15); assay: inhibitors of POS-1/mex-3 RNA binding, dose response, biochemical, fluorescence polarization (AID 1964);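 also: purified POS-1 fused to maltose binding protein made in E. coli; potency of compounds blocking POS-1 binding to fluorescent RNA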
T2 sequence (G5EF15 whole entry): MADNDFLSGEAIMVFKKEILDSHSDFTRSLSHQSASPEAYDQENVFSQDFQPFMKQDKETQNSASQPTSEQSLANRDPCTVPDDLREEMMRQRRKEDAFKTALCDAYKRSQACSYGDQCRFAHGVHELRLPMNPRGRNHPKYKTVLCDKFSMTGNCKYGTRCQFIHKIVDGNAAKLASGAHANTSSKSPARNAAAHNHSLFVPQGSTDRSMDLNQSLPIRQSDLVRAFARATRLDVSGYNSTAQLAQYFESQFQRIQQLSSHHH

[5] = biological target: T1, Polyadenylate-binding protein 1; assay: PABP1 MLLE–PAM2 interaction inhibitors, dose response, miRNA deadenylation inhibitor project, biochemical, fluorescence polarization, Cy5-PAM2 peptide, secondary (AID 602260); assay type: functional; details: read-out: IC50_Mean
[6] = biological target: T3, Zinc finger protein mex-5 (Caenorhabditis elegans, UniProt Q9XUB2); assay: MEX-5/TCR-2 RNA interaction inhibitors, dose response, biochemical, C. elegans, fluorescence polarization (AID 1960)
T3 sequence (Q9XUB2 whole entry): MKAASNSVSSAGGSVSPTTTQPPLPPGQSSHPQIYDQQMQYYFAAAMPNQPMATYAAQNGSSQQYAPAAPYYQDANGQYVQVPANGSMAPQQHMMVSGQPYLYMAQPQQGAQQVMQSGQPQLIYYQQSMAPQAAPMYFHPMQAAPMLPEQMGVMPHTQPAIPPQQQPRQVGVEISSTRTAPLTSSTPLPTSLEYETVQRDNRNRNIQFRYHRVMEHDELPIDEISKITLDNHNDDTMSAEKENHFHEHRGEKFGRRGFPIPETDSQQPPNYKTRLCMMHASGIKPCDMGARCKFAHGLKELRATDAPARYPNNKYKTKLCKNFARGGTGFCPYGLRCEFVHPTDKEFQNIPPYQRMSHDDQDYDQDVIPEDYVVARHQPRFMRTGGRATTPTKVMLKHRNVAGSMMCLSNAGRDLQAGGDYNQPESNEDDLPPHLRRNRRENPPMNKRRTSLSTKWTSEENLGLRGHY

[7] = biological target: SWI/SNF-related matrix-associated actin-dependent regulator of chromatin subfamily A member 2 (Homo sapiens, UniProt P51531); assay: Luminescence-based cell-based high throughput dose response assay to identify activators of the function of SWI/SNF related, matrix associated, actin dependent regulator of chromatin, subfamily a, member 2 (SMARCA2, BRM).; assay type: functional
[8] = CEM21 lymphoblast cell cytotoxicity, dose response, cytotoxicity control for viral fusion inhibitor project, CellTiter-Glo luminescence, cherry-picked (AID 652042); assay type: functional, cell-based;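 also: potency for signal decrease meaning cytotoxicity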
[9] = inhibitors of HIV Env-driven cell fusion, dose response, cherry-pick (AID 652057); assay type: functional, cell-based
[10] = off-target signal loss in HeLa-CEM21 co-culture – HeLa F-luc CTL cells, cherry-picked, counter-screen for HIV-1 Env fusion inhibitor project, dose response (AID 652040); assay type: functional, cell-based;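 also: potency for signal decrease marking cytotoxic or nonspecific inhibition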
[11] = ZM109 Env clade C HIV-1 fusion inhibitors, dose response, HeLa effector, CEM target cells, luciferase, cherry-pick (AID 652058); assay type: functional, cell-based
[12] = inhibitors of clade B AD8 Env fusion, dose response, cell-based, cherry-pick (AID 652062); assay type: functional;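 also: luciferase signal from cell-cell fusion driven by HIV-1 clade B AD8 Env; potency is for inhibitors of fusion seen as a drop in luminescence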
[13] = biological target: T4, Apoptotic protease-activating factor 1 (Homo sapiens, UniProt O14727); assay type: functional
T4 sequence (O14727 whole entry): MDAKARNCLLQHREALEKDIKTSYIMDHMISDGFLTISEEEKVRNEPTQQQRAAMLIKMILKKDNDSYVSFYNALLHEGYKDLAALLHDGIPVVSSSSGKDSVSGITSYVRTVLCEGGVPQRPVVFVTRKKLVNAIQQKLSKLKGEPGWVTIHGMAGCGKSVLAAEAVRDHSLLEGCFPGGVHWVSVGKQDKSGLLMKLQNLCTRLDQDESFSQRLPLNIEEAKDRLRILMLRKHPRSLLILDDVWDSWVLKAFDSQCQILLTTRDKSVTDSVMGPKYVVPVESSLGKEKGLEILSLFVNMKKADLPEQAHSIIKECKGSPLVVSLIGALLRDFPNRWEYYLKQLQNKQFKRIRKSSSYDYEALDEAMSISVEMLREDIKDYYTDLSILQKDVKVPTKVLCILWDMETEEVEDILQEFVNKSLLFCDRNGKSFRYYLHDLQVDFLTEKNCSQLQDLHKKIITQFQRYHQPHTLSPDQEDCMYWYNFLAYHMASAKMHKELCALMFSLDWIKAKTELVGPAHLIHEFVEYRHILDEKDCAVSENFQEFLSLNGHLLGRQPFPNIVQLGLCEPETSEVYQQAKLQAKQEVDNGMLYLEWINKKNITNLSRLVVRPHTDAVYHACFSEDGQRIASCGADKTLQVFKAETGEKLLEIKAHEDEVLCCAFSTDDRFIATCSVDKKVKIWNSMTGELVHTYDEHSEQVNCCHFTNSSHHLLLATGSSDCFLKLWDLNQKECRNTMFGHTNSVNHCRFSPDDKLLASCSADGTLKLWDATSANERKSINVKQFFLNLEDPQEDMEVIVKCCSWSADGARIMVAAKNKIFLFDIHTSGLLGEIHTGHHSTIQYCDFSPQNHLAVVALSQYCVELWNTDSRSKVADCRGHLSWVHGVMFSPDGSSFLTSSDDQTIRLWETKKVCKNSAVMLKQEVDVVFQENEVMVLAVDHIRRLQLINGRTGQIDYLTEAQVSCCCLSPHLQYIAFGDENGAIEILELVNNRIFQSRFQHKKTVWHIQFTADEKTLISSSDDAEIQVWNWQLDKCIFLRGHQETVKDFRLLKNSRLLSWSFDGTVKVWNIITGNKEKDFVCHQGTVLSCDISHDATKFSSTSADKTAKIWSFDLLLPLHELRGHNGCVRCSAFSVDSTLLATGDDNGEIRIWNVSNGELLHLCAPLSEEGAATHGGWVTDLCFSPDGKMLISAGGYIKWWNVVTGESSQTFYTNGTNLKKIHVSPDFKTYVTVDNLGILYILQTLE

INS1 = assay: beta cell apoptosis inhibitors, cytokine rescue, dose response, luminescence, retest (AID 449756); assay type: functional, cell-based; details: Rattus norvegicus;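 also: cell death triggered by IL-1 beta plus TNF-alpha plus IFN-gamma mixture; protective hits raise ATP signal compared with cytokine alone wells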
HEK293 [14] = assay: HEK cell cytotoxicity by LDH release, dose response, cytotoxicity control for IDE activator project, fluorescence, HEK cells (AID 588440); assay type: functional, cell-based; details: Homo sapiens;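 also: cytotoxicity by LDH release measuring loss of membrane integrity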
Insulin-degrading enzyme [15] = biological target: T5, Insulin-degrading enzyme (Homo sapiens, UniProt P14735); assay: activators of endogenous IDE in HEK cells, dose response, cell-based, fluorescence polarization (AID 588439); assay type: functional
T5 sequence (P14735 whole entry): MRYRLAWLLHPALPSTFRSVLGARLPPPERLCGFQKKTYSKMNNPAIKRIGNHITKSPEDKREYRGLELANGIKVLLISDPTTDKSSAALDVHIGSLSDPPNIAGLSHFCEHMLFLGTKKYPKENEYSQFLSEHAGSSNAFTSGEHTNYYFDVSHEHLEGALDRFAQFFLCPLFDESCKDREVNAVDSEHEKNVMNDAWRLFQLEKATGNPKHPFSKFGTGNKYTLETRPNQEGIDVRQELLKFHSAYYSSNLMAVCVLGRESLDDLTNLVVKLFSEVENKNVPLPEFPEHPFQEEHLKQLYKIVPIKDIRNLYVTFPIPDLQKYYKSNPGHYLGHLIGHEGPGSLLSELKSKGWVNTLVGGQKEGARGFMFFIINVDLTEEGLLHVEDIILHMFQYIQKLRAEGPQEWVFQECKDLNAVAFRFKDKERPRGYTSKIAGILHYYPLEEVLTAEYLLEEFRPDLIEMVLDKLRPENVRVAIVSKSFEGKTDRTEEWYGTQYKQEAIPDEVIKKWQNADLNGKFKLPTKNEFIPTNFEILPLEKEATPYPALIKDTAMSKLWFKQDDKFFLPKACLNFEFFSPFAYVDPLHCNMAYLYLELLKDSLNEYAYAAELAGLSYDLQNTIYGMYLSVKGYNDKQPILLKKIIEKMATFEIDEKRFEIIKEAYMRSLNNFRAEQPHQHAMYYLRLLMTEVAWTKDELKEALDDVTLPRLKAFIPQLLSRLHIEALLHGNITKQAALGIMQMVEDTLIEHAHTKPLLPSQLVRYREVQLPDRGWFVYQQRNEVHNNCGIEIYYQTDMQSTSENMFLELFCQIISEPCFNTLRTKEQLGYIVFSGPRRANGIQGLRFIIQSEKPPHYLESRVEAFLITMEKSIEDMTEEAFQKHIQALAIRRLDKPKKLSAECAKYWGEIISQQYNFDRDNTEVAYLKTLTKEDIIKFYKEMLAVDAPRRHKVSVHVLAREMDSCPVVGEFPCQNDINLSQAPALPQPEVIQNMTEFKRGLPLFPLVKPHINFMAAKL

HEK293 [16] = assay: optical interference in Abeta FP readout, dose response, artefact control for IDE activator project, biochemical, fluorescence polarization (AID 588442); assay type: functional, cell-based; details: Homo sapiens
Insulin-degrading enzyme [17] = biological target: T5, Insulin-degrading enzyme; assay: activators of recombinant IDE enzyme, dose response, counter-screen for IDE activator project, biochemical, fluorescence polarization (AID 588681)
Melanocortin receptor 4 = Melanocortin receptor 4 (Homo sapiens, UniProt P32245); assay type: functional, cell-based;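 also: Cell-based assay with luminescence read-out, confirmatory dose-response testing for agonist activity of biased ligands at MC4R; human U2OS cells with tagged receptor and beta-arrestin; potency of agonists that increase receptor coupling to beta-arrestin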
[18] = NIH:OVCAR-3 ovarian cancer cell cytotoxicity, dose response, PAX8 inhibitor project, plate reader, dry powder samples (AID 743044); assay type: functional, cell-based
[19] = IGROV1 ovarian cancer cell cytotoxicity, dose response, PAX8 inhibitor project, plate reader, dry powder samples (AID 743043); assay type: functional, cell-based; details: IGROV-1
[20] = HepG2 cell cytotoxicity, dose response, cytotoxicity control, cherry-picked samples (AID 1159577); assay type: functional, cell-based
[21] = P. falciparum Dd2 growth inhibitors, dose response, SYBR Green, cherry-picked samples (AID 1159567); assay type: functional, cell-based
Paired box protein Pax-8 = Paired box protein Pax-8 (Homo sapiens, UniProt Q06710); assay: inhibitors of PAX8-driven TPO luciferase reporter, dose response, RMG-I cells, cherry-pick (AID 687027); assay type: functional, cell-based;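 also: luciferase reporter driven by Pax8 target thyroperoxidase promoter measured by SteadyGlo luminescence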
[22] = biological target: Aryl hydrocarbon receptor (Homo sapiens, UniProt P35869); details: Potency;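 also: confirmatory quantitative high-throughput screen measuring activation of the AhR signaling pathway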
P388/ADR = assay: cells; assay type: functional; details: Mus musculus
SN12K1 = assay: cells; assay type: functional; details: Homo sapiens
P388 = assay: cells; assay type: functional; details: Mus musculus

Chain of Aryl hydrocarbon receptor (P35869 whole entry): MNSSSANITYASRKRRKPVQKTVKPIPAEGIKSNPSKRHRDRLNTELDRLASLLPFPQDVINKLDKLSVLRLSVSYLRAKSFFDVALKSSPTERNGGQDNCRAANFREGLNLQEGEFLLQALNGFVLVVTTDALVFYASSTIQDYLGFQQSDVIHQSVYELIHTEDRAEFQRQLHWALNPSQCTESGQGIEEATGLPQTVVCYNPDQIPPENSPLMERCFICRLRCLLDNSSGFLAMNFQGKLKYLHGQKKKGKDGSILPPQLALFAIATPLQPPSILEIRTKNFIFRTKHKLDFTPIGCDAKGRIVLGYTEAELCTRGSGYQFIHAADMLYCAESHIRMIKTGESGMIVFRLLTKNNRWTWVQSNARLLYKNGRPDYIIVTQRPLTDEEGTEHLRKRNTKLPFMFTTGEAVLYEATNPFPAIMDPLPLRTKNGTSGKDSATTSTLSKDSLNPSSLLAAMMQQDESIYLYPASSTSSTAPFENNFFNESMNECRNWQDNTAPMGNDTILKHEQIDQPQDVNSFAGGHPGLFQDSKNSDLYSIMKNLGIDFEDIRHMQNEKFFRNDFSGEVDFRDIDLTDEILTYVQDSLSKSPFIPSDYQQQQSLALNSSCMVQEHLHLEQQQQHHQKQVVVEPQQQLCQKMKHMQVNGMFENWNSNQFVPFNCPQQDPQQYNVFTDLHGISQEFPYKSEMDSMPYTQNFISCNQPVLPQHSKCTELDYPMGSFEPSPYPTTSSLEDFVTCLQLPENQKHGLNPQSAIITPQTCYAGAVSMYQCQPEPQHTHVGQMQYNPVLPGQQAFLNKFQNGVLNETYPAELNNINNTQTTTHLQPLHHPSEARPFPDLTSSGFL
T1 sequence (P11940 whole entry): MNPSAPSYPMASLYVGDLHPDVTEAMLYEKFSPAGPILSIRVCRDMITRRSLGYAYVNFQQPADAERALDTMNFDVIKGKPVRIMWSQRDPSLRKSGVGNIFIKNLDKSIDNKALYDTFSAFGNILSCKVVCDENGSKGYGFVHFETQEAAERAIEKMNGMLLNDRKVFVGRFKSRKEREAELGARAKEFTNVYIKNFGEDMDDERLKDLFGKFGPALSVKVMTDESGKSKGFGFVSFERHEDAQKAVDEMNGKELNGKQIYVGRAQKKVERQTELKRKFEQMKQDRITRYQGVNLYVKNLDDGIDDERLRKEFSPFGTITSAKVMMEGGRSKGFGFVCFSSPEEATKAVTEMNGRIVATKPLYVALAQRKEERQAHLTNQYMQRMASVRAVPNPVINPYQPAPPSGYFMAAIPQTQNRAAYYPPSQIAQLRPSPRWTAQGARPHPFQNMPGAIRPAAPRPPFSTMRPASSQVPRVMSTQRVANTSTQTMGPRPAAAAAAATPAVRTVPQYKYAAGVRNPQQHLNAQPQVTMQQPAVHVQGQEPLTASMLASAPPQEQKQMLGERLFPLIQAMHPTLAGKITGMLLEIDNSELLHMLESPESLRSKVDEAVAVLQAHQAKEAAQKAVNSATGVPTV
Chain of Paired box protein Pax-8 (Q06710 whole entry): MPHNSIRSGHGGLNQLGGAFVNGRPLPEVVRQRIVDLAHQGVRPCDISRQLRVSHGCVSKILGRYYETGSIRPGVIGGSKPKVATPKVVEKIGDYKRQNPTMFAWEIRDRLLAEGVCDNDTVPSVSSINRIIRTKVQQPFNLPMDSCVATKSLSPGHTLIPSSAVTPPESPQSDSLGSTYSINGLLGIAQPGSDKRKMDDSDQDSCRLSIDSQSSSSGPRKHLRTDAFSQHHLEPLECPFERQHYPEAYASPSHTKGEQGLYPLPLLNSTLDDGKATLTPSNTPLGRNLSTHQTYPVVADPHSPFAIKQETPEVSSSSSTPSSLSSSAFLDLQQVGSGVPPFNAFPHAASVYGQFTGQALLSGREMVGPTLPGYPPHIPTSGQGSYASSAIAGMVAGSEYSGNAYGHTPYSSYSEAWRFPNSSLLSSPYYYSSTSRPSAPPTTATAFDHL
Chain of SWI/SNF-related matrix-associated actin-dependent regulator of chromatin subfamily A member 2 (P51531 whole entry, the tested form may be a part): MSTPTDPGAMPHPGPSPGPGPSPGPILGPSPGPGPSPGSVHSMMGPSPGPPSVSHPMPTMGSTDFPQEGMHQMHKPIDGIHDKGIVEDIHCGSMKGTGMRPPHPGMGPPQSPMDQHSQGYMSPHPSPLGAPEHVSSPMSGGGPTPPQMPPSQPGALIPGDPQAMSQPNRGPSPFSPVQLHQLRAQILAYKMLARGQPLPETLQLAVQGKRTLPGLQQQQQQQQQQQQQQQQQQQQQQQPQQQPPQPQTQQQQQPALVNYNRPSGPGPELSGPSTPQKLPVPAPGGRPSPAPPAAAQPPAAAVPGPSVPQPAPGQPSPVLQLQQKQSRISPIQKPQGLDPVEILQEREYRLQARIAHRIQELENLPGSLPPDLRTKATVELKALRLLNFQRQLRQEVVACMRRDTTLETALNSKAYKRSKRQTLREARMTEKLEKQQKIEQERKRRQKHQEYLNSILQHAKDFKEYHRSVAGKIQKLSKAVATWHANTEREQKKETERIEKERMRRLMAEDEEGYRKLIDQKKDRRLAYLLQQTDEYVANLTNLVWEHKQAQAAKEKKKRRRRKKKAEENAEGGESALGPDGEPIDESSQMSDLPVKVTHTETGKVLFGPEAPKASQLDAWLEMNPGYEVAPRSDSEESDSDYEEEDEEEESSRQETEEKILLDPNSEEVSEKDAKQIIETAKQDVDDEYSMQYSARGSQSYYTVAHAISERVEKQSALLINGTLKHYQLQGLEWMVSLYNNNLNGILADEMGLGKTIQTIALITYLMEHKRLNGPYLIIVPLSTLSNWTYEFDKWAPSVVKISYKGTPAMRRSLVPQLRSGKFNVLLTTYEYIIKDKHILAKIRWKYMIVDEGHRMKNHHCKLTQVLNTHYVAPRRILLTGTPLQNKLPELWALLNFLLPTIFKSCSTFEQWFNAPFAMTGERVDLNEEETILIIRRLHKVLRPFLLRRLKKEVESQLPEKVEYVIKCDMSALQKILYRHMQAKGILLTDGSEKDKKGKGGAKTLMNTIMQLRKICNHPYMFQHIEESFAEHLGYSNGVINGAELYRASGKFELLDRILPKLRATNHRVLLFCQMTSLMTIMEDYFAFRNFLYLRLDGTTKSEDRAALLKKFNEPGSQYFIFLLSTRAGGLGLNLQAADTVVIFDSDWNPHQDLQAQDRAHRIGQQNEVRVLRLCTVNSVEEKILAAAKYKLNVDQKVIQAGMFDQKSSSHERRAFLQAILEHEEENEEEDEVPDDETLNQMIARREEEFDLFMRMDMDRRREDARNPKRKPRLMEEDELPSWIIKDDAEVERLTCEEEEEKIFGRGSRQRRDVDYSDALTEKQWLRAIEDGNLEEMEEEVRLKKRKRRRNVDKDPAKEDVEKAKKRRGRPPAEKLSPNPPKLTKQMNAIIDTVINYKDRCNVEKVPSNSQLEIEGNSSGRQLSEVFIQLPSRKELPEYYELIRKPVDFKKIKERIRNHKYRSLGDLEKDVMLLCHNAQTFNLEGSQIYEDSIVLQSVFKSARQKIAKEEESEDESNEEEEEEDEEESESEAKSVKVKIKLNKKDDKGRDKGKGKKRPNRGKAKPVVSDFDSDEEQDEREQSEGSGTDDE
Chain of Melanocortin receptor 4 (P32245 whole entry): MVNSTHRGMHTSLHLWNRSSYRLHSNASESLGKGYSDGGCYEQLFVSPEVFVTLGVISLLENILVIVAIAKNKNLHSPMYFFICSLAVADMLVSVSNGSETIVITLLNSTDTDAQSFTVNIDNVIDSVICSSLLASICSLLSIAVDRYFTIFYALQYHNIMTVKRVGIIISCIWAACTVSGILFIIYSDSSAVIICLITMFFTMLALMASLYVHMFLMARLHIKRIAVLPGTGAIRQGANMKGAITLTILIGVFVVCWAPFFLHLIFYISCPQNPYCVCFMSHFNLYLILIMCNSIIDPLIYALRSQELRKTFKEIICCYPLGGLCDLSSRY

IC50 [1]: 7.8 µM (active)
Compound: COc1cccc(CSc2nnc(CSc3nc4nc(C)cc(C)n4n3)s2)c1

Compound: CN(C)CCCN1C(=O)c2cccc3c(Br)ccc(c23)C1=O
IC50 [2]: 29.3 µM (inactive)
EC50 [3]: > 91.2 µM (inactive)
EC50 [4]: 22.1 µM (active)
IC50 [5]: > 66 µM (inactive)
EC50 [6]: 16.7 µM (active)
EC50 [7]: > 10.1 µM (inactive)

Compound: COc1cc(CNC(C)c2ccccc2)cc(Cl)c1OCC(=O)Nc1ccccc1 (centres undefined)
AC50 [8]: 39 µM (active)
AC50 [9]: 2.13 µM (active)
AC50 [10]: 4.69 µM (active)
AC50 [11]: 2.76 µM (active)
AC50 [12]: 3.78 µM (active)

Compound: Oc1ccc(Br)cc1CNc1cccc2cccnc12
IC50 [13]: 34.6 µM (active)
AC50 (INS1): 3.24 µM (active)

Compound: Cc1ccc(N/C=C(\C#N)S(=O)(=O)c2ccccc2)cc1
IC50 (HEK293 [14]): > 89.3 µM (inactive)
EC50 (Insulin-degrading enzyme [15]): > 54.7 µM (inactive)
EC50 (HEK293 [16]): > 56 µM (inactive)
EC50 (Insulin-degrading enzyme [17]): > 54.7 µM (inactive)

Compound: CC1=C(C(=O)OCc2ccccc2)C(c2ccc(Br)cc2)NC(=O)N1CCCCCC(=O)O (centres undefined)
IC50 (HEK293 [14]): > 89.2 µM (inactive)
EC50 (Insulin-degrading enzyme [15]): > 54.7 µM (inactive)
EC50 (HEK293 [16]): > 55.9 µM (inactive)
EC50 (Insulin-degrading enzyme [17]): > 54.7 µM (inactive)

EC50 (Melanocortin receptor 4): > 89.2 µM (inactive)
Compound: COc1ccc(-c2cc(NC(C)=O)c3ncc(-c4cccc(C(F)(F)F)c4)n3c2)c(OC)c1

Compound: CCCC#Cc1ccc([C@@H]2[C@H](CO)N3CCCCN(S(=O)(=O)Cc4ccccc4)C[C@@H]23)cc1
AC50 [18]: 61.3 µM (active)
AC50 [19]: 42.6 µM (active)
AC50 [20]: 12.4 µM (active)
AC50 [21]: 2.54 µM (active)
AC50 (Paired box protein Pax-8): 29.2 µM (active)

Compound: C[C@@H]1CN([C@@H](C)CO)C(=O)Cc2cc(NC(=O)NC3CCCCC3)ccc2O[C@@H]1CN(C)S(=O)(=O)c1ccc(Cl)cc1
AC50 [8]: 61.1 µM (active)

Compound: Cc1nn(C)c(Oc2ccccc2)c1/C=N/OCc1ccc(C(=O)OC(C)(C)C)cc1 [FENPYROXYMATE]
AC50 [22]: 44.7 µM (inconclusive)

Compound: O=C1C=C2C(=CCOC2O)O1 (centres undefined) [PATULIN]
GI50 (P388/ADR): 0.318 µM (active)
GI50 (SN12K1): 0.998 µM (active)
AC50 [22]: 12.6 µM (inconclusive)
GI50 (P388): 0.135 µM (active)
